Data set [1] has as its system human pancreatic cancer cell MiaPaca 2 xenograft. Kind of data set: Tumor inhibition test on MiaPaca 2 xenograft model. The note with it: intragastric. The format is in vivo, Balb/c nude mice. The procedure: Balb/c nude mice were used as test animals. In vivo pharmacodynamic test was carried out on human pancreatic cancer cell MiaPaca 2 xenograft (CDX) model to evaluate the anti-tumor effect of the test compounds.
MiaPaca 2 cells were taken from the cell bank and thawed. The cells were added to the DMEM medium (containing 10% FBS, 1% Glu and 1% P/S), and incubated in the CO2 incubator (the temperature of the incubator was 37° C., and the CO2 concentration was 5%). After the cells covered 80-90% of the bottom of the culture flask, the cells were passaged. After passage, the cells continued to be incubated in the CO2 incubator. The process was repeated until the number of cells met the inoculation requirement of the in vivo pharmacodynamic test. The cells in logarithmic growth phase were collected, and counted by the automatic cell counter. According to the counting results, the cells were resuspended with PBS and Matrigel (volume ratio: 1:1) to obtain a cell suspension (density: 8×10^7/ml), which was placed in an ice box for later use.
Female Balb/c nude mice (6-8 weeks old, body weight: about 18-22 grams) were used as test animals. The mice were maintained in an environment free of special pathogens and in a single ventilated cage (five mice per cage). All cages, bedding and water were disinfected before use. All animals had free access to standard certified commercial laboratory animal diets. The nude mice were marked with a disposable universal ear tag for rats and mice before the test. The skin of the inoculation site was disinfected with 75% medical alcohol before the inoculation. Each mouse was inoculated with 0.1 ml of MiaPaca 2 tumor cells (containing 8*10^6 cells) subcutaneously on the right back. When the average tumor volume reached 100 to 200 mm^3, administration was carried out. The test compounds were administered intragastrically daily. The tumor volume (mm^3) was measured with the vernier caliper twice a week. The tumor volume calculation formula: V=0.5*D*d*d, wherein D and d represent the long diameter and short diameter of the tumor, respectively. The anti-tumor efficacy was determined by dividing the average tumor increase volume of the compound-treated animals by the average tumor increase volume of the untreated animals. Tumor growth inhibition rate calculation formula: […]
All animals were euthanized after the experiment.

For data set [2], the system named is NCI-H358 cells. Kind of data set: Proliferation inhibition of NCI-H358 cells (CellTiter-Glo). The format is cell-based. The note with it: Homo sapiens, NCI-H358, 72 h; 3 days incubation. The procedure: Experimental method: 3000 cells (90 μL of cell suspension) were inoculated to each well of a 96-well cell culture plate (Corning, #3610). The culture plate was incubated in an incubator overnight (37° C., 5% CO2). On the next day, 10 μL of gradient dilutions of the test compound solution (the final DMSO content was 0.2%, V/V, the final concentration of the reaction system ranged from 10 μM to 4.5 nM) was added to each well of the culture plate. At the same time, full activity control (compound only with DMSO) and full inhibition control (no cells) were set up on the reaction plate. The culture plate was incubated in the incubator for 3 days (37° C., 5% CO2).
After completion of the incubation, 50 μL of CellTiter-Glo reagent was added to each well of the cell culture plate, which was left to stand at room temperature for 10 minutes. The chemiluminescence signal value was measured in the Synergy H1 full-function microplate reader (BioTek). […] The IC50 value of the test compounds was calculated by fitting the percentage inhibition rate and data of eight concentrations to a four-parameter nonlinear logic formula with GraphPad prism.
The IC50 value was calculated by fitting the data of different concentrations and corresponding percentage inhibition rates to a four-parameter nonlinear logic formula with GraphPad prism.

The target of data set [3] is T1, hERG potassium channel (Homo sapiens, UniProt Q12809).
T1 construct: expressed in transfected cells; host or cells: CHO-hERG cells
Kind of data set: Inhibitory activity on hERG potassium channel (Qpatch, CHO-hERG cells). The format is cell-based. To be noted: six concentrations up to 40 μM, read-out: hERG (inhibitory effect on hERG current). The method, then: 8.1.1 CHO-hERG cells were cultured in a 175 cm^2 culture flask. When the cells were grown to a density of 60 to 80%, the culture solution was removed, and the cells were washed once with 7 mL of PBS, and then 3 mL of Detachin was added for digestion of the cells.
8.1.2 After the digestion was complete, the cells were neutralized by adding 7 mL of the culture solution and then centrifuged. The supernatant was removed, and then 5 mL of the culture solution was added for resuspension to ensure a cell density of 2-5×10^6 cells/mL.
The single-cell high-impedance sealing and whole-cell pattern formation processes were both completed automatically by the Qpatch instrument. After the whole-cell recording pattern was obtained, the cells were clamped at −80 millivolts. A pre-voltage of −50 millivolts was applied for 50 milliseconds prior to the application of a depolarizing stimulus of +40 millivolts for 5 seconds, and then the cells were repolarized to −50 millivolts and maintained for 5 seconds, and then returned back to −80 millivolts. This voltage stimulation was applied every 15 seconds, and data were recorded for 2 minutes, and thereafter the extracellular fluid was administered and data were recorded for 5 minutes, and then the administration process was started. The compound was administered from the lowest test concentration, and 2.5 minutes were given for each test concentration. After all the concentrations of the compound were administered, […] Cisapride as a positive control compound was administered. At least three cells (n≥3) were tested for each concentration.
8.4.1 20 mM compound mother solution was diluted with the extracellular fluid. 5 μL of the 20 mM compound mother solution was diluted 500 times to 40 μM by adding 2495 μL of the extracellular fluid, and then 3-fold serial dilutions were performed sequentially in the extracellular fluid containing 0.2% DMSO to obtain a final concentration to be tested.
8.4.2 The highest test concentration was 40 μM, and there were six concentrations in total, i.e., 40, 13.33, 4.44, 1.48, 0.49, and […], respectively.
The experimental data were analyzed by XLFit software.

The nature of data set [4]: Pharmacokinetics assay in mice, oral administration. The format is in vivo. To be noted: mouse; male Balb/c mice, oral 5 mg/kg, plasma. The method, then:
Balb/c mice were used as test animals.
5 g of hydroxyethyl cellulose (HEC, CMC-Na, viscosity: 800-1200 Cps) was dissolved in 1000 mL of purified water, and 10 g of Tween80 was added. The solution was mixed well to form a clear solution. […] The solution was subjected to ultrasound for 10 minutes to obtain a colorless and clear solution with a concentration of 0.5 mg/mL.
After an overnight fast, male Balb/c mice were administrated orally with the test compounds at an administration dose of 5 mg/kg and an administration volume of 10 mL/kg.
Blood was taken before administration and at 0.25 hour, 0.5 hour, 1 hour, 2 hours, 4 hours, 6 hours, 8 hours and 24 hours after administration. The blood samples were stored in EDTA-2K tubes, and centrifuged for 6 minutes at 6000 rpm, at 4° C. to separate the blood plasma. The plasma samples were stored at −80° C. The mice were fed four hours after administration.

T1 sequence (Q12809 whole entry): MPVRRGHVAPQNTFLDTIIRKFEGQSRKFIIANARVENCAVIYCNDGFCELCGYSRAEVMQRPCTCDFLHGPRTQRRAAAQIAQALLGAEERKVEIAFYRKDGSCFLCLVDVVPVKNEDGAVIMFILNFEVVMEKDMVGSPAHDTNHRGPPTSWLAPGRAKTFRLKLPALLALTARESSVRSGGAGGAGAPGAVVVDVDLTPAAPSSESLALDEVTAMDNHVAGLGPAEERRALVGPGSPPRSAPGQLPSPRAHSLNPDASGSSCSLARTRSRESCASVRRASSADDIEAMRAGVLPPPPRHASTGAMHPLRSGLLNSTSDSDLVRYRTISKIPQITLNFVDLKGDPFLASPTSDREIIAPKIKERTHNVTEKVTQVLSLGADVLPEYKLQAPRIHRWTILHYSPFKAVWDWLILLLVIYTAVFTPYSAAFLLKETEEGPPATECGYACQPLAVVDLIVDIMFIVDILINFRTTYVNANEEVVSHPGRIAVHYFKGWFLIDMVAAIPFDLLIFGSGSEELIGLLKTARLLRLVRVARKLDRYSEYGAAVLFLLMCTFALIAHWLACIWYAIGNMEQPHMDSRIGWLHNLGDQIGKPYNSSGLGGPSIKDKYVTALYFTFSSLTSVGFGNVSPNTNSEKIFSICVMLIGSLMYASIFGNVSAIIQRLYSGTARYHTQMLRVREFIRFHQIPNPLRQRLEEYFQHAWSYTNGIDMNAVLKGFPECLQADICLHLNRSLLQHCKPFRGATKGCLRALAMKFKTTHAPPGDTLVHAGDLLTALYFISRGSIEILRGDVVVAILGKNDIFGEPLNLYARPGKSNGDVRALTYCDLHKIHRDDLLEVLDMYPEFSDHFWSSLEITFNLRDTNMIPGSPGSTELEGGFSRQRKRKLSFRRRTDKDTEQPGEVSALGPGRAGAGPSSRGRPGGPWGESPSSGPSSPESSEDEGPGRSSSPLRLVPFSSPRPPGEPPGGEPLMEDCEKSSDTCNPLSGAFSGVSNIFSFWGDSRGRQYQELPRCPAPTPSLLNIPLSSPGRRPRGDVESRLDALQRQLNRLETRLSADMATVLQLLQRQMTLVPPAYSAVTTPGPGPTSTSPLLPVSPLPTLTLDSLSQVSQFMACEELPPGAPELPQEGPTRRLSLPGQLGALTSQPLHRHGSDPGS

With `Nc1nc(N2CCC3(CC2)Cc2ccccc2[C@H]3N)c(F)nc1Sc1ccnc(N)c1Cl` [Example 179, (S)-1′-(6-amino-5-((2-amino-3-chloropyridin-4-yl)thio)-3-fluoropyrazin-2-yl)-1,3-dihydrospiro[indene-2,4′-piperidin]-1-amine], in data set [1] (6 mg/kg QD × 3 w), the “Tumor volume (Mean ± SD) Day 0” value was 166 ± 28 (168 ± 32) mm^3, the “TGI Day 21” value is 91.00%, the “Tumor volume (Mean ± SD) Day 21” value is reported as 227 ± 37 mm^3 and the “ΔT/ΔC Day 21” value is 9.00%. Also, the IC50 in data set [2] worked out at 20.9 nM. For the same compound, in data set [3], the IC50 came to 4510 nM. Moreover, in data set [4], the AUC(0-inf) (as a rule, total exposure, with the tail of the curve extrapolated) came to 2440 ng·h/mL; the maximum concentration (Cmax) (commonly the peak of the concentration-time curve) amounted to 179 ng/mL; the MRT (in general, a mean duration of stay, worked out from the concentration-time curve) amounted to 7.92 h; the time of peak concentration (Tmax) (commonly the time at which the peak concentration occurs) worked out at 0.5 h. Further, the half-life (as a rule, how long it takes for the measured level to halve) in data set [4] is 5.23 h.

For `Nc1nc(N2CCC3(CC2)Cc2ncsc2[C@H]3N)c(F)nc1Sc1ccnc(N)c1Cl` [Example 181, (S)-1′-(6-amino-5-((2-amino-3-chloropyridin-4-yl)thio)-3-fluoropyrazin-2-yl)-4,6-dihydrospiro[cyclopenta[d]thiazole-5,4′-piperidin]-6-amine], in data set [1] (10 mg/kg QD × 3 w), the “Tumor volume (Mean ± SD) Day 0” value was 176 ± 36 (176 ± 39) mm^3, the “TGI Day 21” value came to 92.94%, the “Tumor volume (Mean ± SD) Day 21” value was found to be 240 ± 86 mm^3 and the “ΔT/ΔC Day 21” value stood at 7.06%. Also, the IC50 in data set [2] is 46.5 nM. The IC50 in data set [3] was determined as 21900 nM. In addition, in data set [4], the total exposure AUC(0-inf) was 8160 ng·h/mL, the Cmax stood at 1380 ng/mL, the mean residence time (MRT) was determined as 5.07 h and the Tmax is 0.5 h. In data set [4], this compound showed a half-life of 4.63 h.

As for `Cc1nc(N2CCC3(CC2)Cc2ncsc2[C@H]3N)c(CO)nc1Sc1ccnc(N)c1Cl` [Example 171, (S)-(6-((2-amino-3-chloropyridin-4-yl)thio)-3-(6-amino-4,6-dihydrospiro[cyclopenta[d]thiazole-5,4′-piperidin]-1′-yl)-5-methylpyrazin-2-yl)methanol], in data set [1] (6 mg/kg QD × 3 w), the “Tumor volume (Mean ± SD) Day 0” value is on record as 167 ± 26 (168 ± 32) mm^3, the “TGI Day 21” value stood at 95.43%, the “Tumor volume (Mean ± SD) Day 21” value amounted to 198 ± 70 mm^3 and the “ΔT/ΔC Day 21” value is listed as 4.57%. Further, the IC50 in data set [2] amounted to 11.9 nM. Also, the IC50 in data set [3] came out at 18800 nM. In data set [4], the AUC(0-inf) worked out at 2210 ng·h/mL, the peak concentration (Cmax) amounted to 475 ng/mL, the mean residence time (MRT) is 4.34 h and the time to peak (Tmax) stood at 0.5 h. Besides, the half-life in data set [4] was 3.07 h.

On to `Nc1nccc(Sc2cnc(N3CCC4(CC=C(C5CC5)[C@H]4N)CC3)cn2)c1Cl` [Example 144, (S)-8-(5-((2-amino-3-chloropyridin-4-yl)thio)pyrazin-2-yl)-2-cyclopropyl-8-azaspiro[4.5]dec-2-en-1-amine], for which, in data set [1] (3 mg/kg QD × 3 w), the “Tumor volume (Mean ± SD) Day 0” value is 172 ± 26 (173 ± 28) mm^3, the “TGI Day 21” value came out at 95.07%, the “Tumor volume (Mean ± SD) Day 21” value was 216 ± 66 mm^3 and the “ΔT/ΔC Day 21” value came out at 4.93%. Also, the IC50 in data set [2] came to 9.19 nM. Further, in data set [3], the IC50 stood at 2340 nM. Moreover, in data set [4], the AUC(0-inf) stood at 5390 ng·h/mL, the highest level (Cmax) was 436 ng/mL, the MRT worked out at 9.08 h and the time of peak concentration (Tmax) worked out at 1 h.

Source of the values: patent publication US20210355105A1, “REGULATOR OF NITROGEN-CONTAINING HETEROAROMATIC DERIVATIVES, PREPARATION METHOD THEREFOR AND USE THEREOF” (Jiangsu Hansoh Pharmaceutical Group Co., Ltd., priority 2018, published 2021).
